Entries after “also recorded” stand apart in the source; their conditions may differ.
Experiments:
Format in all cases: cell-based, Streptococcus mutans
[1] = test system: S. mutans biofilms; assay: Total biofilm biomass by crystal violet staining; details: for total bacterial biomass incl. exopolysaccharides (crystal violet), in words: OD 580 nm
Method: (§1) Overnight cultures of S. mutans UA159 were inoculated from glycerol stocks and grown for 12-18 h in 50% TH at 37° C. with 5% CO2. Biofilms were prepared by diluting overnight cultures 1:20 into 50-100 μl of media (TH25% with 1% sucrose) and any polymer solution in a 96-well polystyrene plate for a starting inoculum of 10^7-10^8 CFU per ml. The cultures were then incubated statically for 5 hours at 37° C. with 5% CO2.
Total biofilm biomass was measured using crystal violet staining. The supernatant was aspirated, and the biofilm was washed twice with 100 μl of PBS. Then 100 μl of 0.1% crystal violet was added to each well and incubated for 15 minutes at room temperature. The crystal violet solution was removed, and the stained biofilms were washed five times with 200 μl of distilled water. Finally, 100 μl of 30% acetic acid was added to each well to extract the absorbed crystal violet, and the OD was measured at 580 nm on a microtiter plate reader.

[2] = test system: S. mutans UA159; assay: Biofilm growth CFU assay (fraction biofilm and total growth); details: for overall (total) growth of the bacterial population / toxicity to S. mutans: biofilm CFU per ml + supernatant CFU per ml; for overall (total) growth of the bacterial population / toxicity to S. mutans / fractional biofilm formation (cells in biofilm relative to whole population), in words: 5 h, TH25% with 1% sucrose; for fractional biofilm formation (cells in biofilm relative to whole population), in words: 96-well polystyrene plate
Method: The bacterial strain S. mutans UA159 (ATCC, 700610) was originally isolated from a child with active cavities. Bacteria were cultivated in Bacto Todd-Hewitt broth (TH; BD, 249240) or brain-heart infusion (BHI; BD, 237500) 1.5% agar plates at 37° C. with 5% CO2. To promote biofilm formation, S. mutans was grown in 25% TH supplemented with 1% sucrose.
as §1
To measure total growth and relative biofilm formation, the number of cells in the biofilm and in suspension were counted using a colony forming unit (CFU) assay as previously described. See Werlang, C. A. et al., “Mucin O-glycans suppress quorum-sensing pathways and genetic transformation in Streptococcus mutans,” Nat. Microbiol. 1-10 (2021) doi: 10.1038/s41564-021-00876-1, which is incorporated herein in its entirety by reference for all purposes. Briefly, the supernatant was removed and transferred to a new 96-well plate, the biofilm was washed twice with 100 μl of phosphate-buffered saline (PBS), and the washes were added to the supernatant. The biofilm was then detached and resuspended in 100 μl of PBS by vigorously scraping with a pipette tip for 30 s. Each culture fraction was then serially diluted and plated on BHI agar. Colonies were counted after 24 h growth at 37° C. with 5% CO2. The fraction biofilm was calculated as (biofilm CFU per ml)/(biofilm CFU per ml+supernatant CFU per ml). The total growth was calculated as biofilm CFU per ml+supernatant CFU per ml. All of the conditions had at least three biological replicates (individual data points shown on graphs).

[3] = test system: S. mutans biofilms; assay: Confocal microscopy of SYTO9-stained biofilms; details: SYTO9 stain
Method: For confocal microscopy, S. mutans biofilms were prepared as described above on 96-well glass-bottom plates with 5 nM of SYTO9 green fluorescent nucleic acid stain (ThermoFisher, S34854) added to the cultures. Cultures were imaged on a confocal laser-scanning microscope (LSM 800; Zeiss) with a 63×/1.4 NA oil immersion objective with a step size of 0.5 μm. The excitation wavelength for SYTO9 was 488 nm. At least three stacks were recorded for each well, and at least three independent wells were analyzed for each condition. Images were analyzed with Zeiss ZEN 2.1 imaging software (Thornwood, NY, USA).

[4] = test system: S. mutans; assay: Polymer attachment assay (bacterial attachment to polymer coating); details: coatings from 2 mg per ml polymer on polystyrene, 1 hour at 37° C.
Method: Bacterial attachment to polymer coating was assayed as previously described. See Co, J. Y., Crouzier, T. & Ribbeck, K., “Probing the Role of Mucin-Bound Glycans in Bacterial Repulsion by Mucin Coatings,” Adv. Mater. Interfaces 2, 1500179 (2015), which is incorporated herein in its entirety by reference for all purposes. Briefly, coatings were prepared by incubating 100 μl of polymer solutions (2 mg per ml in Milli-Q purified water) on 96-well polystyrene plates for 2 h at 37° C., followed by three washes with 200 μl of sterile-filtered distilled water. Overnight cultures of S. mutans were centrifuged and resuspended in sterile PBS at an OD600 of 0.4, and 50 μl of the washed culture were added to each well. The bacteria were incubated on the coating for 1 hour at 37° C. To measure cell attachment, unattached bacteria were aspirated, wells were washed three times with 200 μl of PBS, and the remaining bacteria were detached with a pipette and resuspended in PBS before being quantified by a CFU assay.

MUC5B: mucin purified by liquid chromatography from pooled human submandibular saliva
total bacterial biomass incl. exopolysaccharides (crystal violet), in words [1]: reduce the total bacterial biomass | reduction of biofilm biomass ([1]; crystal violet staining): 77% | biofilm fraction of culture ([2]; 0.5% MUC5B mucin): 30% | overall (total) growth of the bacterial population / toxicity to S. mutans [2]: do not affect the overall growth | surface attachment / community structure by confocal microscopy [3]: no longer attached to the surface | surface attachment / community structure by confocal microscopy ([3]; listed as mucin): no longer attach to the surface | S. mutans binding to polymer coating [4]: do not strongly bind | S. mutans binding to polymer coating ([4]; listed as MUC5B mucin): did not bind

CC(=O)N[C@H]1C(O)O[C@H](CO)[C@H](O)[C@@H]1O (stereo partly drawn) [Soluble GalNAc, N-acetyl galactosamine]
fractional biofilm formation (cells in biofilm relative to whole population), in words [2]: do not have a statistically significant impact

CC(=O)N[C@H]1[C@H]([C@H](O)[C@H](O)CO)OC(O)(C(=O)O)C[C@@H]1O (stereo partly drawn) [soluble NeuNAc, N-Acetylneuraminic acid]
total bacterial biomass incl. exopolysaccharides (crystal violet), in words [1]: reduction in total bacterial biomass | fractional biofilm formation (cells in biofilm relative to whole population), in words [2]: small proportional reduction in the fraction of biofilm | overall (total) growth of the bacterial population / toxicity to S. mutans [2]: toxic to S. mutans; also recorded: strong killing effect

— patent US20250195613A1, “COMPOSITIONS AND METHODS FOR REDUCING BIOFILM FORMATION” (Trustees of Tufts College, priority 2022, published 2025)
